{"source": "patent US20240239748A1", "about": "“NOVEL FORMS OF ENTINOSTAT” (Macfarlan Smith Limited, priority 2021, published 2024)", "key": {"[1]": {"method": "XRPD diffractograms are collected on a Bruker D8 diffractometer using Cu Ka radiation (40 kV, 40 mA) and a 0-20 goniometer fitted with a Ge monochromator. The incident beam passes through a 2.0 mm divergence slit followed by a 0.2 mm anti-scatter slit and knife edge. The diffracted beam passes through an 8.0 mm receiving slit with 2.5° Soller slits followed by the Lynxeye Detector. The software used for data collection and analysis is Diffrac Plus XRD Commander and Diffrac Plus EVA respectively. Samples are run under ambient conditions as flat plate specimens using powder as received. The sample is prepared on a polished, zero-background (510) silicon wafer by gently pressing onto the flat surface or packed into a cut cavity. The sample is rotated in its own plane.\nThe details of the standard data collection method are: • Angular range: 2 to 42° 20 • Step size: 0.05° 20 • Collection time: 0.5 s/step (total collection time: 6.40 min)"}, "[2]": {"method": "Sorption isotherms are obtained using a Hiden IGASorp moisture sorption analyser, controlled by Isochema HISorp software. The sample temperature is maintained at 25° C. by a Grant LT ecocool 150 re-circulating water bath. The humidity is controlled by mixing streams of dry and wet nitrogen, with a total flow rate of 250 ml/min. The relative humidity is measured by a calibrated Vaisala RH probe (dynamic range of 0-95% RH), located near the sample. The weight change, (mass relaxation) of the sample as a function of % RH is constantly monitored by the microbalance (accuracy±0.001 mg). Typically, 20-30 mg of sample is placed in a tared mesh stainless steel basket under ambient conditions. The sample is loaded and unloaded at 40% RH and 25° C.(typical room conditions). A moisture sorption isotherm is performed as outlined below (2 scans, giving 1 complete cycle). The standard isotherm is performed at 25° C. at 10% RH intervals over a 0-90% RH range.", "remark": "listed apart in the source"}, "[3]": {"assay": "4 hour solubility in buffered media (HPLC quantitation)", "assay_type": "physicochemical", "details": "thermodynamic from solid, 25° C.", "method": "Sufficient sample is suspended in 1.0 ml media for a maximum anticipated concentration of about 10 mg/ml of the free form of the compound. The resulting suspensions are then shaken at 25° C./750 rpm for 4 hours. The pH of the sample solutions is checked after 1 hour to ensure that the desired pH is maintained throughout (+0.2). After equilibration, the appearance is noted, and the final pH of the saturated solution is measured. Samples are then filtered through a glass ‘C’ fibre filter (Particle retention size 1.2 μm), before dilution with buffer as appropriate. Quantitation is by HPLC with reference to a standard solution of approximately 0.15 mg/ml. Different volumes of the standard, diluted and undiluted sample solutions are injected.\nThe HPLC method for solubility measurements is as follows:\nAnalysis is performed on an Agilent HP1100/Infinity II 1260 series system equipped with a diode array detector and using OpenLAB software."}}, "note": "Read-outs that look alike come from different tables or passages of the source."}
{"smiles": "Nc1ccccc1NC(=O)c1ccc(CNC(=O)OCc2cccnc2)cc1.O=C(O)C=CC(=O)O", "values": [{"measurement": "stability of crystalline form (no change in form by XRPD)", "setting": "[1]; 40° C./75% RH", "value": "stable at 40° C./75% RH for at least two weeks"}]}
{"smiles": "Nc1ccccc1NC(=O)c1ccc(CNC(=O)OCc2cccnc2)cc1.O=C(O)CCC(=O)O", "note": "[Form A of entinostat compound with succinic acid]", "values": [{"measurement": "time the form remains stable, as evidenced by XRPD", "setting": "[1]; 25° C./97% RH", "value": "at least 28 days"}, {"measurement": "time the form remains stable, as evidenced by XRPD", "setting": "[1]; 40° C./75% RH", "value": "at least 28 days"}, {"measurement": "reversible water uptake by GVS", "setting": "[2]; 25° C., 0-90% RH", "value": "~0.5", "unit": "wt %"}, {"measurement": "post GVS XRPD, change of crystalline form", "setting": "[2]; after GVS cycle", "value": "no change in crystalline form"}]}
{"smiles": "Nc1ccccc1NC(=O)c1ccc(CNC(=O)OCc2cccnc2)cc1.O=C(O)CCC(=O)O", "note": "[Form B of entinostat compound with succinic acid]", "values": [{"measurement": "time the form remains stable, as evidenced by XRPD", "setting": "[1]; 40° C./75% RH", "value": "at least 7 days"}]}
{"smiles": "Nc1ccccc1NC(=O)c1ccc(CNC(=O)OCc2cccnc2)cc1.O=C(O)CCC(=O)O", "note": "[Form C of entinostat compound with succinic acid]", "values": [{"measurement": "time the form remains stable, as evidenced by XRPD", "setting": "[1]; 40° C./75% RH", "value": "at least 7 days"}]}
{"smiles": "Nc1ccccc1NC(=O)c1ccc(CNC(=O)OCc2cccnc2)cc1", "note": "[U.S. Pat. No. 7,973,166 Polymorph A, N-(2-aminophenyl)-4-[N-(pyridine-3-yl)-methoxycarbonylamino-methyl]-benzamide]", "values": [{"measurement": "solubility at 4 h", "setting": "[3]; aqueous buffer, pH 4.5 acetate buffer", "value": 190, "unit": "µg/mL"}, {"measurement": "solubility at 4 h", "setting": "[3]; aqueous buffer, pH 6.8 phosphate buffer", "value": 75, "unit": "µg/mL"}, {"measurement": "solubility at 4 h", "setting": "[3]; aqueous buffer, pH 7.5 phosphate buffer", "value": 72, "unit": "µg/mL"}, {"measurement": "solubility at 4 h", "setting": "[3]; buffer pH 2.8, aqueous buffer, pH 2.8 buffer", "value": 5900, "unit": "µg/mL"}, {"measurement": "solubility at 4 h", "setting": "[3]; simulated gastric fluid, pH 1.2 hydrochloric acid buffer", "value": "> 7900", "unit": "µg/mL"}]}
